From patent US11040028B2, “Penicinotam derivative, preparation method and use thereof” (OCEAN UNIVERSITY OF CHINA, priority 2017, dated 2021)

Assays:
Assay type in all cases: cell-based
[1] = tested on: mouse macrophages (RAW264.7); assay: Lipopolysaccharide-induced NO secretion in macrophages (Griess); conditions: Mus musculus, RAW264.7, 24 h, RAW264.7, LPS 1 μg/ml, a/b isomers given as first/second symbol, read-out: IC50 (μM), inhibition of lipopolysaccharide-induced NO secretion in macrophages
Procedure: The effects of the compounds of the present application on the lipopolysaccharide-induced NO secretion in macrophage was tested Principle: Anti-inflammatory drug activity screening is to detect the inhibitory effect of compounds on NO production in the mouse macrophages (RAW264.7). When immune cells are stimulated by microbial endotoxin, inflammatory mediators, etc., a large amount of induced NO synthase (iNOS) is produced, and thus NO is generated for immune response. Accordingly, the inhibition of NO production can serve as a direct indicator of the anti-inflammatory activity of the compound. The activity of the compound to inhibit NO production at the cellular level is directly evaluated in the abovementioned test model, thereby reflecting the anti-inflammatory activity of the compound. In this experiment, the content of NO in the medium was detected by Gris kit (Molecular probes, G-7921). Macrophages (Raw264.7) were cultured in DMEM medium containing 10% fetal bovine serum, with the cell concentration adjusted. The cells were seeded in 24-well cell culture plates, cultured in an incubator, and the test samples in different concentrations were added every other day. The blank medium was used as a blank control, and commercially available indomethacin and resveratrol were employed as positive controls. After the addition of lipopolysaccharide (LPS, 1 μg/ml), incubation was performed for 24 hours. Then the supernatant culture solution was taken, to […] reagent was added, and the absorbance value was measured by a microplate reader at 548 nm. Inhibition rate=([…])×100%.

[2] = tested on: human fibrosarcoma cells HT-1080; assay: Anti-fibrosis activity test: inhibition of proliferation of human fibrosarcoma cells HT-1080 (CCK-8); conditions: Homo sapiens, HT-1080, 48 h
How it was run: (§1)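 After one day of adherence at 37° C in 5% CO2, cells (seeded at 2×10^4 cells/mL) received the compounds for two days in triplicate. Inhibition of proliferation was quantified with CCK-8 at 450 nm, with IC50 calculated from IR = (1−Ai/Ao)×100%.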

[3] = tested on: human hepatic stellate cells LX-2; assay: Anti-fibrosis activity test: inhibition of proliferation of human hepatic stellate cells LX-2 (CCK-8); conditions: Homo sapiens, 48 h
How it was run: as §1

[4] = tested on: human embryonic lung fibroblast IMR-90; assay: Anti-fibrosis activity test: inhibition of proliferation of human embryonic lung fibroblast IMR-90 (CCK-8)
How it was run: as §1

[5] = tested on: human dermal fibroblasts CCC-ESF-1; assay: Anti-fibrosis activity test: inhibition of proliferation of human dermal fibroblasts CCC-ESF-1 (CCK-8); conditions: Fibroblast
How it was run: as §1

[6] = tested on: human lung fibroblasts HFL1; assay: Anti-fibrosis activity test: inhibition of proliferation of human lung fibroblasts HFL1 (CCK-8); conditions: Homo sapiens, HFL1, 48 h
How it was run: as §1

[7] = tested on: cardiac fibroblast RAT-iCell-C002; assay: Anti-fibrosis activity test: inhibition of proliferation of cardiac fibroblast RAT-iCell-C002 (CCK-8); conditions: Cardiac fibroblast, 48 h
How it was run: as §1

[8] = tested on: BHK-21 cells; assay: Anti-fibrosis activity test: inhibition of BHK-21 cell proliferation (CCK-8); conditions: Mesocricetus auratus, BHK-21, 48 h
How it was run: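 Read-out: CCK-8 absorbance at 450 nm after 2 h, giving proliferation inhibition (1−Ai/Ao)×100% versus blank control, from which IC50 was derived. Cells had been treated with compounds for 48 h after 24 h adherence at 37° C. Pirfenidone served as positive control.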

[9] = human fibrosarcoma cells HT-1080, CCK-8, 48 hours
[10] = human hepatic stellate cells LX-2, CCK-8, 48 hours
[11] = human embryonic lung fibroblast IMR-90, CCK-8, 48 hours
[12] = human dermal fibroblasts CCC-ESF-1, CCK-8, 48 hours
[13] = human lung fibroblasts HFL1, CCK-8, 48 hours
[14] = cardiac fibroblast RAT-iCell-C002, CCK-8, 48 hours
[15] = CCK-8, 48 hours after administration
[16] = Homo sapiens, IMR-90 cells, 48 h, CCK-8
[17] = Homo sapiens, CCC-ESF-1 cells, 48 h, CCK-8

| IC50 [1] [µM] | IC50 [2, 9] [mM] | IC50 ([2]; HT-1080 cells, 48 h, CCK-8) [mM] | Compound | IC50 [3, 10] [mM] | IC50 [4, 11] [mM] | IC50 [5, 12] [mM] | IC50 [6, 13] [mM] | IC50 [7, 14] [mM] | IC50 [8, 15] [mM] | IC50 ([3]; LX-2, 48 h, LX-2 cells, CCK-8) [mM] | IC50 [4, 16] [mM] | IC50 [5, 17] [mM] | IC50 ([6]; HFL1 cells, 48 h, CCK-8) [mM] | IC50 ([7]; RAT-iCell-C002 cells, CCK-8) [mM] | IC50 ([8]; 48 h, CCK-8) [mM] |
| --- | --- | --- | --- | --- | --- | --- | --- | --- | --- | --- | --- | --- | --- | --- | --- |
| 1 to 10 | 0.05 to 5 | – | O=C1c2c(n(Cc3cccc(Cl)c3)c3cccc(C(F)(F)F)c3c2=O)-c2cccn21 [Compound 466a, 4-(3-Chlorobenzyl)-8-(trifluoromethyl)-9H-pyrrolizino[1,2-b]quinoline-9,10(4H)-dione] | < 0.05 | 0.05 to 5 | 0.05 to 5 | 0.05 to 5 | 0.05 to 5 | 0.05 to 5 | – | – | – | – | – | – |
| 0.1 to 1 | 0.05 to 5 | – | O=C1c2c([nH]c3cc(Cl)ccc3c2=O)-c2cccn21 [Compound 500a, 6-Chloro-9H-pyrrolizino[1,2-b]quinoline-9,10(4H)-dione] | < 0.05 | 0.05 to 5 | 0.05 to 5 | 0.05 to 5 | 0.05 to 5 | 0.05 to 5 | – | – | – | – | – | – |
| 1 to 10 | 0.05 to 5 | – | O=C1c2c(nc3ccc(F)cc3c2OCCO)-c2cccn21 [Compound 114b, 7-fluoro-9-(2-hydroxyethoxy)-10H-pyrrolizino[1,2-b]quinolin-10-one] | 0.05 to 5 | 0.05 to 5 | 0.05 to 5 | 0.05 to 5 | 0.05 to 5 | 0.05 to 5 | – | – | – | – | – | – |
| 1 to 10 | 0.05 to 5 | – | O=C1c2c(nc3c(Cl)cccc3c2OCc2ccc(Cl)cc2)-c2cccn21 [Compound 451b, 5-chloro-9-((4-chlorobenzyl)oxy)-10H-pyrrolizino[1,2-b]quinolin-10-one] | 0.05 to 5 | 0.05 to 5 | 0.05 to 5 | < 0.05 | 0.05 to 5 | 0.05 to 5 | – | – | – | – | – | – |
| 1 to 10 | 0.05 to 5 | – | O=C1c2c(nc3cc(Cl)ccc3c2O)-c2cccn21 [Compound 500b, 6-chloro-9-hydroxy-10H-pyrrolizino[1,2-b]quinolin-10-one] | 0.05 to 5 | 0.05 to 5 | 0.05 to 5 | 0.05 to 5 | 0.05 to 5 | 0.05 to 5 | – | – | – | – | – | – |
| 10 to 50 | – | 0.05 to 5 | Cc1ccc2c(=O)c3c([nH]c2c1)C(=O)n1cccc1-3 [Compound 778a, 8-Methyl-5H-pyrrolizino[2,1-b]quinoline-5,11(6H)-dione] | – | – | – | – | – | – | 0.05 to 5 | 0.05 to 5 | 0.05 to 5 | 0.05 to 5 | 0.05 to 5 | 0.05 to 5 |
| 1 to 10 | 0.05 to 5 | – | O=C(O)Cn1c2c(c(=O)c3cc(F)ccc31)C(=O)n1cccc1-2 [Compound 153a, 2-(7-Fluoro-9,10-dioxo-9H-pyrrolizino[1,2-b]quinolin-4(10H)-yl)acetic acid] | < 0.05 | 0.05 to 5 | 0.05 to 5 | 0.05 to 5 | 0.05 to 5 | < 0.05 | – | – | – | – | – | – |
| 1 to 10 | 0.05 to 5 | – | N#Cc1ccc2c(c1)c(=O)c1c(n2-c2ccc(F)cc2)-c2cccn2C1=O [Compound 199a, 4-(4-Fluorophenyl)-9,10-dioxo-4,10-dihydro-9H-pyrrolizino[1,2-b]quinoline-7-carbonitrile] | 0.05 to 5 | 0.05 to 5 | 0.05 to 5 | 0.05 to 5 | 0.05 to 5 | < 0.05 | – | – | – | – | – | – |
| 0.1 to 1 | 0.05 to 5 | – | O=C1c2c(n(Cc3ccc(Cl)cc3)c3cccc(F)c3c2=O)-c2cccn21 [Compound 471a, 4-(4-Chlorobenzyl)-8-fluoro-9H-pyrrolizino[1,2-b]quinoline-9,10(4H)-dione] | < 0.05 | 0.05 to 5 | 0.05 to 5 | 0.05 to 5 | 0.05 to 5 | 0.05 to 5 | – | – | – | – | – | – |
| 1 to 10 | 0.05 to 5 | – | CCn1c2c(c(=O)c3cc(F)ccc31)C(=O)n1cccc1-2 [Compound 104a, 4-Ethyl-7-fluoro-9H-pyrrolizino[1,2-b]quinoline-9,10(4H)-dione] | 0.05 to 5 | 0.05 to 5 | 0.05 to 5 | 0.05 to 5 | 0.05 to 5 | < 0.05 | – | – | – | – | – | – |

The next lines start with the compound.

| Compound | IC50 [1] [µM] | IC50 [2, 9] [mM] | IC50 ([2]; HT-1080 cells, 48 h, CCK-8) [mM] | IC50 [3, 10] [mM] | IC50 [4, 11] [mM] | IC50 [5, 12] [mM] | IC50 [6, 13] [mM] | IC50 [7, 14] [mM] | IC50 [8, 15] [mM] | IC50 ([3]; LX-2, 48 h, LX-2 cells, CCK-8) [mM] | IC50 [4, 16] [mM] | IC50 [5, 17] [mM] | IC50 ([6]; HFL1 cells, 48 h, CCK-8) [mM] | IC50 ([7]; RAT-iCell-C002 cells, CCK-8) [mM] | IC50 ([8]; 48 h, CCK-8) [mM] |
| --- | --- | --- | --- | --- | --- | --- | --- | --- | --- | --- | --- | --- | --- | --- | --- |
| N#Cc1ccc2nc3c(c(Oc4ccc(F)cc4)c2c1)C(=O)n1cccc1-3 [Compound 199b, 9-(4-fluorophenoxy)-10-oxo-10H-pyrrolizino[1,2-b]quinoline-7-carbonitrile] | 1 to 10 | 0.05 to 5 | – | 0.05 to 5 | 0.05 to 5 | 0.05 to 5 | 0.05 to 5 | 0.05 to 5 | 0.05 to 5 | – | – | – | – | – | – |
| O=C(Oc1c2c(nc3ccc(F)cc13)-c1cccn1C2=O)c1ccco1 [Compound 150b, 7-fluoro-10-oxo-10H-pyrrolizino[1,2-b]quinolin-9-yl furan-2-carboxylate] | 1 to 10 | 0.05 to 5 | – | < 0.05 | 0.05 to 5 | 0.05 to 5 | 0.05 to 5 | 0.05 to 5 | 0.05 to 5 | – | – | – | – | – | – |
| O=C1c2c(c(=O)c3ccccc3n2CCN2CCNCC2)-c2cccn21 [Compound 792a, 6-(2-(Piperazin-1-yl)ethyl)-5H-pyrrolizino[2,1-b]quinoline-5,11(6H)-dione] | 0.1 to 1 | – | 0.05 to 5 | – | – | – | – | – | – | 0.05 to 5 | 0.05 to 5 | < 0.05 | 0.05 to 5 | 0.05 to 5 | 0.05 to 5 |
| N#Cc1cccc2nc3c(c(OCc4ccccc4F)c12)C(=O)n1cccc1-3 [Compound 469b, 9-((2-fluorobenzyl)oxy)-10-oxo-10H-pyrrolizino[1,2-b]quinoline-8-carbonitrile] | 10 to 50 | 0.05 to 5 | – | 0.05 to 5 | 0.05 to 5 | 0.05 to 5 | 0.05 to 5 | 0.05 to 5 | 0.05 to 5 | – | – | – | – | – | – |
| CC(C)n1c2c(c(=O)c3cc(F)c(N4CCNCC4)cc31)C(=O)n1cccc1-2 [Compound 331a, 7-Fluoro-4-isopropyl-6-(piperazin-1-yl)-9H-pyrrolizino[1,2-b]quinoline-9,10(4H)-dione] | 1 to 10 | 0.05 to 5 | – | 0.05 to 5 | 0.05 to 5 | 0.05 to 5 | 0.05 to 5 | 0.05 to 5 | 0.05 to 5 | – | – | – | – | – | – |
| N#Cc1cccc2nc3c(c(OCc4cccc(F)c4)c12)C(=O)n1cccc1-3 [Compound 463b, 9-((3-fluorobenzyl)oxy)-10-oxo-10H-pyrrolizino[1,2-b]quinoline-8-carbonitrile] | 1 to 10 | 0.05 to 5 | – | 0.05 to 5 | 0.05 to 5 | 0.05 to 5 | 0.05 to 5 | 0.05 to 5 | 0.05 to 5 | – | – | – | – | – | – |
| O=C1c2nc3ccccc3c(OCc3ccc(-c4ccccc4)cc3)c2-c2cccn21 [Compound 796b, 11-([1,1′-biphenyl]-4-ylmethoxy)-5H-pyrrolizino[2,1-b]quinolin-5-one] | 1 to 10 | – | 0.05 to 5 | – | – | – | – | – | – | 0.05 to 5 | 0.05 to 5 | 0.05 to 5 | 0.05 to 5 | 0.05 to 5 | 0.05 to 5 |
| O=C1c2c(c(=O)c3ccccc3n2CCN2CCCCC2)-c2cccn21 [Compound 784a, 6-(2-(Piperidin-1-yl)ethyl)-5H-pyrrolizino[2,1-b]quinoline-5,11(6H)-dione] | 10 to 50 | – | 0.05 to 5 | – | – | – | – | – | – | 0.05 to 5 | 0.05 to 5 | 0.05 to 5 | 0.05 to 5 | 0.05 to 5 | < 0.05 |
